{"source": "patent US20230110824A1", "about": "“FLUORESCENT PROBES FOR DETECTION OF CALCIFICATIONS” (TECHNISCHE UNIVERSITÄT BERLIN, priority 2020, published 2023)", "key": {"[1]": {"assay": "Staining of mouse rib sections with the dyes, epifluorescence microscopy", "format": "binding, mouse (C57BL/6)", "conditions": "for dependence of fluorescence intensity of rib staining on incubation time: 10 to 120 mins; for dependence of fluorescence intensity of rib staining on dye concentration: 1, 0.1 and 0.01 mg/mL in HEPES; for HAP-associated staining / binding to HAP in rib sections: 1 mg/mL", "experimental": "Mouse ribs (C57BL/6) were fixed in 4% paraformaldehyde (PFA). Ribs were processed for wax embedding through sequential immersion in increasing concentrations of ethanol followed by immersion in xylene/clearene and paraffin wax embedding. Rib sections (6 μm thickness) were dewaxed with xylene and rehydrated with decreasing concentrations of ethanol and distilled water (dH2O). Rib sections were incubated with a variety of either namely((4-(5,5-difluoro-1,3,7,9-tetramethyl-5H-414,514-dipyrrolo[1,2-c:2′,1′-f][1,3,2]diazaborinin-10-yl)phenyl)phosphonic acid) (BODIPY-PPA), 5,10,15,20-tetrakis[p-phenylphosphonicacid] porphyrin (p-H8TPPA) and 5,10,15,20-tetrakis[m-phenylphosphonic acid] porphyrin (m-H8TPPA) dyes. […] Meso-tetra(4-phosphorylphenyl)porphine, porph-tetra-meta-phenyl phosphonate, BODIPY-PPA; and BODIPY-PPA-2Et2 were all incubated for 120 mins when diluted to 1, 0.1 and 0.01 mg/mL in HEPES, and incubated at 1 mg/mL for 120, 60, 30, 20 and 10 mins. Images were obtained for up to two weeks after staining. p-H8TPPA-iPr8 and p-TBr3PPA-iPr2 were only incubated for 120 mins at 1 mg/mL, including an incubation with dimethyl sulfoxide (DMSO). Negative controls were included by incubating ribs with the buffers alone. Following incubation with the respective dyes, slides were washed with their respective buffers (3×5 mins) and counter stained with DAPI, diluted in PBS, for 20 mins. After washing with PBS (3×5 mins), slides were mounted with 70% glycerol, diluted in PBS. Images were acquired on a Leica DM5500 epifluorescent microscope, using a 20× objective. The exposure times used to capture these images were kept the same throughout imaging. Images were processed using the FIJI software.\nTo further probe their HAP binding properties, we have used laterally sectioned mouse ribs as an example of HAP, which were incubated with p-H8TPPA at concentrations ranging from 0.01 to 1.0 mg/mL in HEPES buffer for varying times at room temperature and imaged by fluorescence microscopy (for details see description of the figures), to assess HAP binding capability."}, "[2]": {"assay": "Absorbance and fluorescence spectra in presence and absence of HAP (Flexstation 3 microplate reader)", "format": "binding", "experimental": "The absorbance (A) and fluorescence (B) spectra of 0.01 mg mL^−1p-H8TPPA in the presence (dashed lines) and absence (solid lines) of HAP. The dye was diluted to 0.01 mg mL^−1 in PBS (pH 7.4, green), TBS (pH 7.4, orange), HEPES (pH 7.4, purple) and d H2O with absorbance and fluorescence spectra obtained using the Flexstation 3 microplate reader.\nCharacterization of Probes: The structure and purity of the probes were characterized by liquid chromatography, infrared, NMR, and/or mass spectrometry. Their optical properties were characterized by absorption and fluorescence spectrophotometry in the presence and absence of authentic hydroxyapatite, whitlockite, and other doped apatites. The dyes were also tested on mouse ribs as an example of hydroxyapatite in tissue.\nThis is also reflected in the maximal peak of the fluorescence intensity (FIG. 14 B), with a shift from λem 646-648 nm for PBS, TBS and HEPES to λem 675 nm when diluted in dH2O. […] Previously reported bisphosphonate fluorophores had […] aliphatic carbons between the fluorescent core and HAP binding, therefore, such systems merely functioned as fluorescent labels with no change in emission due to HAP binding since they lacked synergistic interaction between the HAP and the fluorescent core. Phosphonic acids that have direct sp^2 bonds to the fluorescent core could extend the conjugation of the fluorescent core to the HAP and thereby could initiate changes in the ground and excited states resulting in quenching or enhancing the fluorescence emission."}, "THP-1 monocytes": {"tested_on": "THP-1 monocytes", "assay": "Cellular uptake / cell labeling of proliferating THP-1 monocytes, fluorescence emission scan", "format": "cell-based, human", "conditions": "loading buffer, 60 min, 420 nm excitation", "experimental": "In addition to the application on bone sections, the phenylphosphonic acid/esterified porphyrins' propensity for cellular uptake was tested on proliferating human cells (FIG. 15). Aiming to use phenylphosphonic acid functionalized porphyrins in in vivo applications, the negative charge on the deprotonated phosphonate might be a handicap by limiting cell permeability. Optional demasking of phosphonate esters in metabolic surroundings might occur, recreating the metal binding PhPO3^2-. This possibility led us to examine p-H8TPPA and p-H8TPPA-iPr8 suitability for in vivo cellular experiments by testing their permeability on proliferating human THP-1 monocytes.\nWe have treated THP-1 monocytes with the Phosphorylphenyl-modified porphyrins in loading buffer (10 mM HEPES, pH 7.35, 120 mM NaCl, 5.4 mM KCl, 5 mM glucose, 1.3 mM CaCl2, 1 mM MgCl2, 1 mM NaH2PO4, 0.3% bovine serum albumin) for 60 min. Excess fluorescence dye was removed by multiple washing steps before fluorescence emission scanning using 420 nm excitation (Tecan Infinite M200 reader; Tecan, Germany). […] We hypothesize that the phosphonates, being somewhat amphipathic, were able to penetrate the cell membrane, whereas the more nonpolar esters were not as efficient."}, "[3]": {"tested_on": "intestinal Caco-2 cell line", "conditions": "at high concentrations; cited from earlier work"}, "[4]": {"assay": "Precipitation / solubility of the dye in incubation buffers", "experimental": "Mouse ribs were incubated for 120 mins with p-TBr3PPA-iPr2 (5,10,15-tris[p-bromophenyl]-20-[p-phenyl-, bis(1-methylethyl) ester phosphonic acid] porphyrin) diluted to 1 mg/mL in different buffers.\nMouse ribs were incubated for 120 mins with p-H8TPPA-iPr8 phosphonate diester diluted to 1 mg/mL in different buffers."}, "[5]": {"conditions": "1 mg/mL in HEPES, 120 mins, imaged up to 14 days / two weeks after staining"}}, "note": "Entries after “also recorded” stand apart in the source; their conditions may differ."}
{"compound": "O=P(O)(O)c1cccc(-c2c3nc(c(-c4cccc(P(=O)(O)O)c4)c4ccc([nH]4)c(-c4cccc(P(=O)(O)O)c4)c4nc(c(-c5cccc(P(=O)(O)O)c5)c5ccc2[nH]5)C=C4)C=C3)c1", "note": "[m-H8TPPA, 5,10,15,20-tetrakis[m-phenylphosphonic acid] porphyrin]", "values": [{"measurement": "dependence of fluorescence intensity of rib staining on incubation time", "setting": "[1]; 1 mg/mL in HEPES", "result": "no clear difference in fluorescence intensity"}, {"measurement": "change of fluorescence intensity after staining", "setting": "[1]; [5]", "result": "no noticeable decrease in fluorescence intensity"}, {"measurement": "dependence of fluorescence intensity of rib staining on dye concentration", "setting": "[1]; 120 mins", "result": "little to no difference in the fluorescent intensity"}, {"measurement": "duration of fluorescence of stained ribs", "setting": "[1]; compared to p-H8TPPA", "result": "longer fluorescence period"}]}
{"compound": "O=P(O)(O)c1ccc(-c2c3nc(c(-c4ccc(P(=O)(O)O)cc4)c4ccc([nH]4)c(-c4ccc(P(=O)(O)O)cc4)c4nc(c(-c5ccc(P(=O)(O)O)cc5)c5ccc2[nH]5)C=C4)C=C3)cc1", "note": "[p-H8TPPA, 5,10,15,20-tetrakis[p-phenylphosphonic acid] porphyrin]", "values": [{"measurement": "fluorescent signal of stained ribs", "setting": "[1]; 0.1 mg/mL in HEPES", "result": "clear fluorescent signal"}, {"measurement": "fluorescent signal of stained ribs", "setting": "[1]; 1 mg/mL diluted in dH2O", "result": "no fluorescent signal"}, {"measurement": "dependence of fluorescence intensity of rib staining on incubation time", "setting": "[1]; 1 mg/mL in HEPES", "result": "clear increase in fluorescence intensity with an increasing incubation time"}, {"measurement": "difference of fluorescence intensity between buffers", "setting": "[1]; 1 mg/mL in HEPES, PBS, TBS", "result": "no clear difference"}, {"measurement": "change of fluorescence intensity after staining", "setting": "[1]; 1 mg/mL in HEPES, day of staining vs 7 days later", "result": "noticeable decrease in fluorescence intensity"}, {"measurement": "fluorescent signal of stained ribs compared to HEPES only negative control", "setting": "[1]; 1 mg/mL in HEPES, incubated for 10 mins", "result": "clear fluorescent signal"}, {"measurement": "HAP-associated staining / binding to HAP in rib sections", "setting": "[1]; 120 mins", "result": "specific for hydroxyapatite"}, {"measurement": "dependence of fluorescence intensity of rib staining on dye concentration", "setting": "[1]; 120 mins", "result": "binds to HAP with a concentration dependence"}, {"measurement": "fluorescent signal after staining", "setting": "[1]; diluted in PBS, after two weeks", "result": "weak fluorescent signal"}, {"measurement": "fluorescent signal after staining", "setting": "[1]; diluted in PBS, one week after staining", "result": "fluorescent signal above background signal"}, {"measurement": "fluorescent signal after staining", "setting": "[1]; diluted in TBS, one week after staining", "result": "fluorescent signal above background signal"}, {"measurement": "fluorescence intensity upon HAP binding", "setting": "[2]", "result": "increased"}, {"measurement": "increase of fluorescence intensity upon HAP binding", "setting": "[2]; 0.01 mg mL^-1 in HEPES pH 7.4", "result": 2.0, "unit": "fold"}, {"measurement": "increase of fluorescence intensity upon HAP binding", "setting": "[2]; 0.01 mg mL^-1 in PBS pH 7.4", "result": 1.8, "unit": "fold"}, {"measurement": "increase of fluorescence intensity upon HAP binding", "setting": "[2]; 0.01 mg mL^-1 in TBS pH 7.4", "result": 2.0, "unit": "fold"}, {"measurement": "increase of fluorescence intensity upon HAP binding", "setting": "[2]; 0.01 mg mL^-1 in d H2O", "result": 1.6, "unit": "fold"}, {"measurement": "maximal peak of the fluorescence intensity (λem)", "setting": "[2]; PBS, TBS and HEPES", "result": "646-648 nm"}, {"measurement": "absorbance peak maximum", "setting": "[2]; PBS, TBS and HEPES (before shift)", "result": 415, "unit": "nm"}, {"measurement": "absorbance peak maximum", "setting": "[2]; diluted in dH2O", "result": 435, "unit": "nm"}, {"measurement": "maximal peak of the fluorescence intensity (λem)", "setting": "[2]; diluted in dH2O", "result": 675, "unit": "nm"}, {"measurement": "cell labeling / passage through the cellular membrane", "setting": "THP-1 monocytes", "result": "much more efficient in cell labeling; also recorded: can travel through the cellular membrane"}, {"measurement": "toxicity for an intestinal cell line", "setting": "[3]", "result": "no toxicity"}]}
{"compound": "CC(C)OP(=O)(OC(C)C)c1ccc(-c2c3nc(c(-c4ccc(P(=O)(OC(C)C)OC(C)C)cc4)c4ccc([nH]4)c(-c4ccc(P(=O)(OC(C)C)OC(C)C)cc4)c4nc(c(-c5ccc(P(=O)(OC(C)C)OC(C)C)cc5)c5ccc2[nH]5)C=C4)C=C3)cc1", "note": "[p-H8TPPA-iPr8]", "values": [{"measurement": "HAP-associated staining / binding to HAP in rib sections", "setting": "[1]; 120 mins", "result": "no binding to HAP occurring; also recorded: complete lack of HAP-associated staining"}, {"measurement": "cell labeling / passage through the cellular membrane", "setting": "THP-1 monocytes", "result": "hindered their passage through the cellular membrane"}, {"measurement": "solubility in the aqueous", "setting": "[4]", "result": "dramatically reduced their solubilities"}]}
{"compound": "CC(C)OP(=O)(OC(C)C)c1ccc(-c2c3nc(c(-c4ccc(Br)cc4)c4ccc([nH]4)c(-c4ccc(Br)cc4)c4nc(c(-c5ccc(Br)cc5)c5ccc2[nH]5)C=C4)C=C3)cc1", "note": "[p-TBr3PPA-iPr2, 5,10,15-tris[p-bromophenyl]-20-[p-phenyl-, bis(1-methylethyl) esterphosphonic acid] porphyrin]", "values": [{"measurement": "HAP-associated staining / binding to HAP in rib sections", "setting": "[1]; 120 mins", "result": "lack of HAP-associated staining; also recorded: no binding to HAP occurring"}, {"measurement": "behaviour of the dye during incubation", "setting": "[4]; 1 mg/mL in DMSO", "result": "precipitation of the dye"}, {"measurement": "behaviour of the dye during the incubation period", "setting": "[4]; 1 mg/mL in HEPES, PBS, TBS and dH2O, 120 mins", "result": "precipitated"}]}
{"compound": "((4-(5,5-difluoro-1,3,7,9-tetramethyl-5H-414,514-dipyrrolo[1,2-c:2′,1′-f][1,3,2]diazaborinin-10-yl)phenyl)phosphonic acid) [BODIPY-PPA]", "values": [{"measurement": "dependence of fluorescence intensity of rib staining on incubation time", "setting": "[1]; 1 mg/mL in HEPES", "result": "decrease in fluorescence intensity is observed for decreasing incubation times"}, {"measurement": "change of fluorescence intensity after staining", "setting": "[1]; [5]", "result": "only a very slight decrease in fluorescence intensity"}, {"measurement": "dependence of fluorescence intensity of rib staining on dye concentration", "setting": "[1]; 120 mins", "result": "strong concentration dependency of staining"}]}
